Measured values as given in the supplement of paper PMC4862054.

Experiments:
Conditions in all cases: incubation time: 72 h
[1] = system: BT-474; test: normalised response (% of control), CellTox Green; higher = less cell death (100 = DMSO, 0 = benzethonium chloride kill control)
In short: (§1)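 Values are normalised signals, each belonging to one concentration of the series. Breast cancer cells (20 µl suspension) were seeded into 384-well plates with compound at 5 concentrations in 10-fold steps over a compound-specific 10,000-fold range and incubated 72 h. Readouts were CellTox Green fluorescence (485/520 nm), then CellTiter-Glo luminescence after 10 min at room temperature, with each plate set to 0.1 % DMSO as 100 and a positive kill control as 0.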

[2] = system: BT-549; test: as above
In short: as §1

[3] = system: CAL-120; test: as above
In short: as §1

[4] = system: CAL-148; test: as above
In short: as §1

[5] = system: CAL-51; test: as above
In short: as §1

[6] = system: CAL-85-1; test: as above
In short: as §1

[7] = system: DU-4475; test: as above
In short: as §1

[8] = system: HCC1143; test: as above
In short: as §1

[9] = system: HCC1599; test: as above
In short: as §1

[10] = system: HCC1937; test: as above
In short: as §1

[11] = system: HDQ-P1; test: as above
In short: as §1

[12] = system: MCF-10A; test: as above
In short: as §1

[13] = system: MDA-MB-231; test: as above
In short: as §1

[14] = system: MDA-MB-436; test: as above
In short: as §1

[15] = system: MDA-MB-453; test: as above
In short: as §1

[16] = system: MDA-MB-468; test: as above
In short: as §1

[17] = system: MFM-223; test: as above
In short: as §1

[18] = system: BT-474; test: normalised response (% of control), CellTiter-Glo; higher = more viable cells (100 = DMSO, 0 = benzethonium chloride kill control)
Procedure: (§2)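 DSRT, 72 h incubation, CellTox Green / CellTiter-Glo readout. Signal is normalised to DMSO and benzethonium chloride controls. Value is the normalised response at dose 3.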

[19] = system: BT-549; test: as above
Procedure: as §2

[20] = system: CAL-120; test: as above
Procedure: as §2

[21] = system: CAL-148; test: as above
Procedure: as §2

[22] = system: CAL-51; test: as above
Procedure: as §2

[23] = system: CAL-85-1; test: as above
Procedure: as §2

[24] = system: DU-4475; test: as above
Procedure: as §2

[25] = system: HCC1143; test: as above
Procedure: as §2

[26] = system: HCC1599; test: as above
Procedure: as §2

[27] = system: HCC1937; test: as above
Procedure: as §2

[28] = system: HDQ-P1; test: as above
Procedure: as §2

[29] = system: Hs578T; test: as above
Procedure: as §2

[30] = system: MCF-10A; test: as above
Procedure: as §2

[31] = system: MDA-MB-231; test: as above
Procedure: as §2

[32] = system: MDA-MB-436; test: as above
Procedure: as §2

[33] = system: MDA-MB-453; test: as above
Procedure: as §2

[34] = system: MDA-MB-468; test: as above
Procedure: as §2

[35] = system: MFM-223; test: as above
Procedure: as §2

[36] = system: SK-BR-3; test: as above
Procedure: as §2

[37] = system: Hs578T; test: normalised response (% of control), CellTox Green; higher = less cell death (100 = DMSO, 0 = benzethonium chloride kill control)
In short: as §1

| Compound | normalised response [1] [%] | normalised response [2] [%] | normalised response [3] [%] | normalised response [4] [%] | normalised response [5] [%] | normalised response [6] [%] | normalised response [7] [%] | normalised response [8] [%] | normalised response [9] [%] | normalised response [10] [%] | normalised response [11] [%] | normalised response [12] [%] | normalised response [13] [%] | normalised response [14] [%] | normalised response [15] [%] | normalised response [16] [%] | normalised response [17] [%] | normalised response [18] [%] | normalised response [19] [%] | normalised response [20] [%] | normalised response [21] [%] | normalised response [22] [%] | normalised response [23] [%] | normalised response [24] [%] | normalised response [25] [%] | normalised response [26] [%] | normalised response [27] [%] | normalised response [28] [%] | normalised response [29] [%] | normalised response [30] [%] | normalised response [31] [%] | normalised response [32] [%] | normalised response [33] [%] | normalised response [34] [%] | normalised response [35] [%] | normalised response [36] [%] | normalised response [37] [%] |
| --- | --- | --- | --- | --- | --- | --- | --- | --- | --- | --- | --- | --- | --- | --- | --- | --- | --- | --- | --- | --- | --- | --- | --- | --- | --- | --- | --- | --- | --- | --- | --- | --- | --- | --- | --- | --- | --- |
| COc1cc([C@@H]2c3cc4c(cc3[C@@H](O[C@@H]3O[C@@H]5CO[C@@H](C)O[C@H]5[C@H](O)[C@H]3O)[C@H]3COC(=O)[C@H]23)OCO4)cc(OC)c1O [Etoposide] (100 nM) | 101 | 92.4 | 106 | 92 | 112 | 95.2 | 98.8 | 98.7 | 110 | 111 | 92 | 75 | 112 | 107 | 102 | 56.9 | 104 | 99.9 | 94.6 | 102 | 103 | 107 | 102 | 82.9 | 100 | 110 | 94.9 | 102 | 111 | 106 | 120 | 98.3 | 113 | 100 | 110 | 109 | – |
| CO[C@H]1/C=C\C=C(/C)C(=O)NC2=CC(=O)C(NCCN(C)C)=C(C[C@@H](C)C[C@H](OC)[C@H](O)[C@@H](C)/C=C(\C)[C@@H]1OC(N)=O)C2=O [Alvespimycin] (10 nM) | 93.9 | 89.8 | 97.3 | 108 | 110 | 95.8 | 101 | 105 | 111 | 118 | 90.8 | 94.8 | 85.3 | 89.8 | 96.9 | 116 | 104 | 104 | 63.4 | 106 | 110 | 101 | 104 | 103 | 99 | 106 | 94.8 | 89.5 | 103 | 115 | 106 | 76.8 | 89.1 | 94.8 | 88.1 | 72.3 | – |
| Cc1ccc(C(=O)N(CCCN)[C@@H](c2oc3cc(Cl)ccc3c(=O)c2Cc2ccccc2)C(C)C)cc1 (1 nM) | 101 | 93.7 | 83.7 | 93.5 | 74.1 | 113 | 103 | – | 88.1 | 97 | 100 | 107 | 102 | 108 | 104 | – | 100 | 95 | 101 | 102 | 84.9 | 65.8 | 107 | 96.6 | 103 | 104 | 94.3 | 105 | 94.8 | 97 | 103 | 105 | 91.4 | 93.9 | 91.4 | 88.2 | 104 |
| Clc1ccc(Nc2nnc(Cc3ccncc3)c3ccccc23)cc1 [Vatalanib] (100 nM) | 99.6 | 105 | 102 | 107 | 110 | 77.6 | 101 | 117 | 106 | 115 | 109 | 103 | 102 | – | 64 | – | 103 | 103 | 109 | 99.1 | 112 | 89.3 | 103 | 105 | 106 | 109 | 103 | 101 | 106 | 111 | 105 | 111 | 106 | 108 | 107 | 102 | 111 |
| CC(C)Cn1cnc2c(N)nc3ccccc3c21 [Imiquimod] (25 nM) | 102 | 87.2 | 96.9 | – | 90.4 | 98.1 | 102 | 81.4 | 103 | 102 | 74.9 | 91.9 | 100 | 101 | 61.1 | – | 105 | 104 | 103 | 101 | 110 | 81.8 | 99.9 | 107 | 107 | 101 | 94.8 | 101 | 107 | 103 | 102 | 104 | 97.4 | 104 | 107 | 106 | 51.6 |
| COc1cc2ncnc(Nc3ccc(F)c(Cl)c3)c2cc1NC(=O)/C=C/CN1CCCCC1 [Dacomitinib] (10 nM) | 98.8 | 102 | 105 | 101 | 105 | 90.5 | 104 | 80 | 88.8 | – | 50 | 108 | 103 | 103 | 98 | 68.7 | 100 | 100 | 105 | 100 | 103 | 91 | 84.2 | 104 | 102 | 99.7 | 98.1 | 77 | 108 | 56.4 | 106 | 100 | 96 | 78.8 | 103 | 77.3 | – |
| Cc1ccc(C(=O)Nc2ccc(CN3CCN(C)CC3)c(C(F)(F)F)c2)cc1C#Cc1cnc2cccnn12 [Ponatinib] (10 nM) | 100 | 94.4 | 102 | 95.3 | 99.5 | 103 | 101 | 69.8 | 101 | – | – | 99.1 | – | 73.4 | 105 | 93.2 | 77.6 | 105 | 104 | 106 | 106 | 106 | 99.5 | 101 | 99.5 | 89.4 | 94.3 | 105 | 99.1 | 111 | 99.6 | 109 | 105 | 106 | 88.4 | 106 | – |
| N.N.[Cl][Pt][Cl] [Cisplatin] (10 nM) | 104 | 115 | 108 | 103 | 94.8 | 112 | 114 | 109 | 102 | 90.6 | 109 | 115 | 114 | – | 106 | – | 105 | 102 | 107 | 108 | 82.8 | 90.6 | 94.7 | 96.6 | 103 | 104 | 97.7 | 101 | 96.4 | 106 | 103 | 103 | 90.5 | 85.3 | 99.8 | 93.5 | 78.4 |
| CNCc1ccc(-c2[nH]c3cc(F)cc4c3c2CCNC4=O)cc1 [Rucaparib] (100 nM) | 95.5 | 71.6 | 98.9 | 97.4 | 91.6 | 97.5 | 95.7 | 104 | 94.4 | – | 104 | – | 87 | 83.3 | 102 | – | 73.3 | 93 | 106 | 92.8 | 86 | 84.1 | 99.1 | 97.2 | 99.3 | 109 | 99.2 | 98.3 | 99.8 | 93.6 | 99.2 | 90.6 | 91.3 | 104 | 88.8 | 90 | 108 |
